Here are results for 12 compounds from patent US7786141B2 (Vertex Pharmaceuticals Incorporated, priority 2004, dated 2010).

Like-named read-outs stand apart in the source and are kept apart here.

Usually EC50 stands for the concentration giving half of the maximal effect.

One experiment addresses T1, M1 muscarinic receptor (Homo sapiens, UniProt P11229).
T1 construct: expressed in transfected cells; host or cells: CHO (M1-CHO)
T1 sequence (P11229 1-460): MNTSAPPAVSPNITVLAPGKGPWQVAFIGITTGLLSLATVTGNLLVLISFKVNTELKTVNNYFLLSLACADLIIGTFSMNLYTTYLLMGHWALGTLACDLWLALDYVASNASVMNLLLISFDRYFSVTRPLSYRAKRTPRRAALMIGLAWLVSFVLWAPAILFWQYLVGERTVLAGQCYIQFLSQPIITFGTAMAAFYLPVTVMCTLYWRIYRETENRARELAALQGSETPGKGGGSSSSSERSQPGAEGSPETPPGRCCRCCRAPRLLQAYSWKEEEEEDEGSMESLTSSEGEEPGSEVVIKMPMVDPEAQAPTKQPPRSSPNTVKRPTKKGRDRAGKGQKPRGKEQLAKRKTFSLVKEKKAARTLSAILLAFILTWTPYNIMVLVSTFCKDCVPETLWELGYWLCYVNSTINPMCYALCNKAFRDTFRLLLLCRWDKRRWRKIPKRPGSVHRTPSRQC
Kind of experiment: Functional mobilization of intracellular calcium (FLIPR) in M1-CHO cells. It is filed as cell-based. The method, boiled down: (§1)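 Intracellular calcium rise is measured by FLIPR fluorescence over 60 sec in CHO cells carrying human M1 or M4 receptors. Compounds are tested alone as agonists, or pre-incubated 15 min (or co-applied) ahead of carbachol at its EC80 to detect inhibition.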
A general note: Calcium assays in cells follow changes in intracellular calcium, usually with a dye or a luminescent sensor.

Another experiment concerns the target T2, M4 muscarinic receptor (Homo sapiens, UniProt P08173).
T2 construct: expressed in transfected cells; host or cells: CHO (M4-CHO)
T2 sequence (P08173 1-479): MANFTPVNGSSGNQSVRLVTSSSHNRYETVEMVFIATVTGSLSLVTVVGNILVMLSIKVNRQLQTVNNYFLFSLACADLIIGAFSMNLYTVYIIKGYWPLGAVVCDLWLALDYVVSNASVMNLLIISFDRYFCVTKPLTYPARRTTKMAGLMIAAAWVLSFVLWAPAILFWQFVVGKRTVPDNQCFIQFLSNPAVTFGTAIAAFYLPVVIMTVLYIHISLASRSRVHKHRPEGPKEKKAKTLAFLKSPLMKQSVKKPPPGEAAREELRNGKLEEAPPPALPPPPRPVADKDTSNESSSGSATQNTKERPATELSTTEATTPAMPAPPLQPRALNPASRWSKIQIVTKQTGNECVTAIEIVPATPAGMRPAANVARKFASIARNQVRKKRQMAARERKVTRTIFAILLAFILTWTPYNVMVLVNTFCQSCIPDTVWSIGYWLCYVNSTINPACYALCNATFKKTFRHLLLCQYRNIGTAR
The experiment in a line: Functional mobilization of intracellular calcium (FLIPR) in M4-CHO cells. The format is cell-based. Put shortly:
as §1

Setting [1] is: Table 4, 100% efficacy is the maximum response obtained with the Carbachol control.
Where [2] appears, read: Table 4, M1 receptor, calcium mobilization (FLIPR).
Setting [3] is: Table 4, M4 receptor, calcium mobilization (FLIPR).
Setting [4] is: M1 receptor, calcium mobilization.
Setting [5] is: M1 receptor, calcium mobilization, read-out: M1 Efficacy.
Where [6] appears, read: M4 receptor, calcium mobilization.
Where [7] appears, read: M4 receptor, calcium mobilization, read-out: M4 Efficacy.
Where [8] appears, read: M1-CHO cells, calcium mobilization (FLIPR).
[9] abbreviates: M1-CHO cells, calcium mobilization (FLIPR), read-out: M1 Efficacy.
The mark [10] stands for this setting: M4-CHO cells, calcium mobilization (FLIPR).
Setting [11] is: M4-CHO cells, calcium mobilization (FLIPR), read-out: M4 Efficacy.
Where [12] appears, read: Table 4, modulating M1 receptor.
[13] abbreviates: Table 4, modulating M4 receptor.

Regarding `CC(=O)N1CC2(CCN(C[C@H]3CCN(C(=O)OCC(F)F)C3)CC2)c2ccccc21` [compound 871], the Emax on M1 muscarinic receptor (setting [1]) and on M4 muscarinic receptor (setting [1]) was 25 to 100% in each case. The “M1 Activity” value at M1 muscarinic receptor (setting [2]) is “x (activity was measured to be greater than 5.0 μM)”. Moreover, the “M4 Activity” value on M4 muscarinic receptor (setting [3]) was “xx (activity was measured to be between 2.0 μM and 5.0 μM)”.
As to `Cc1ccc2c(c1)C1(CCN(C3CC4CCC3C4)CC1)CN2C(=O)c1ccccn1` (stereo not drawn) [compound 813], the Emax was 25 to 100% at M1 muscarinic receptor (setting [1]) and < 25% at M4 muscarinic receptor (setting [1]). The “M1 Activity” value at M1 muscarinic receptor (setting [2]) is “x (activity was measured to be greater than 5.0 μM)”. Besides, the “M4 Activity” value on M4 muscarinic receptor (setting [3]) was “x (activity was measured to be greater than 5.0 μM)”.
With `CCOC(=O)N1C2CCC1CC(N1CCC3(CC1)CN(C(C)=O)c1ccc(F)cc13)C2` (stereo not drawn) [compound 371], the “M1 Activity” value on M1 muscarinic receptor (setting [4]) is reported as “xxx (activity was measured to be less than 0.1 μM)”. In addition, the Emax on M1 muscarinic receptor (setting [5]) was 65 to 85%; on M4 muscarinic receptor (setting [7]), > 85%. For the same compound, on M4 muscarinic receptor (setting [6]), the “M4 Activity” value is on record as “x (activity was measured to be greater than 1.0 μM)”.
Regarding `COC(=O)N1C2CCC1CC(N1CCC3(CC1)CN(S(C)(=O)=O)c1ccc(F)cc13)C2` (stereo not drawn) [compound 383], the concentration for a half-maximal effect (EC50) on M1 muscarinic receptor (setting [8]) was < 100 nM; on M4 muscarinic receptor (setting [10]), 100 to 1000 nM. For the same compound, the Emax is 65 to 85% at M1 muscarinic receptor (setting [9]) and < 65% on M4 muscarinic receptor (setting [11]).
Take `CS(=O)(=O)N1CC2(CCN(C3CC4CCC(C3)N4C(=O)O[C@@H]3CCOC3)CC2)c2cc(F)ccc21` (stereo partly drawn) [compound 16]: the “M1 Activity” value on M1 muscarinic receptor (setting [4]) is on record as “xxx (activity was measured to be less than 0.1 μM)”. For the same compound, the Emax at M1 muscarinic receptor (setting [5]) and at M4 muscarinic receptor (setting [7]) was 65 to 85% throughout. In addition, the “M4 Activity” value at M4 muscarinic receptor (setting [6]) is “xxx (activity was measured to be less than 0.1 μM)”.
For the compound `CCOC(=O)N1CCC(N2CCC3(CC2)CN(C(=O)N2CCOCC2)c2ccccc23)CC1` [compound 903], the Emax at M1 muscarinic receptor (setting [1]) and at M4 muscarinic receptor (setting [1]) was 25 to 100% in each case. Besides, the “M1 Activity” value on M1 muscarinic receptor (setting [2]) was “xx (activity was measured to be between 2.0 μM and 5.0 μM)”. Further, the “M4 Activity” value at M4 muscarinic receptor (setting [3]) is given as “xxx (activity was measured to be less than 2.0 μM)”.
For the compound `CCCC1CCC(N2CCC3(CC2)C[C@H](NC(C)=O)c2ccccc23)CC1` (stereo partly drawn) [compound 15], the “M1 Activity” value at M1 muscarinic receptor (setting [4]) is “xxx (activity was measured to be less than 0.1 μM)”. The Emax at M1 muscarinic receptor (setting [5]) is 65 to 85%; on M4 muscarinic receptor (setting [7]) it was > 85%. Besides, the “M4 Activity” value at M4 muscarinic receptor (setting [6]) is “xx (activity was measured to be between 0.1 μM and 1.0 μM)”.
In the case of `CCCOC(=O)N1C2CCC1CC(N1CCC3(CC1)CN(C(=O)OCCOC)c1ccc(F)cc13)C2` (stereo not drawn) [compound 405], the 50% effective concentration (EC50) was 100 to 1000 nM at M1 muscarinic receptor (setting [8]) and > 1000 nM at M4 muscarinic receptor (setting [10]). The Emax on M1 muscarinic receptor (setting [9]) and at M4 muscarinic receptor (setting [11]) was < 65% throughout.
As to `c1ccc2c(c1)CCC21CCN(CC2CCOCC2)CC1` [compound 18], the “M1 Activity” value on M1 muscarinic receptor (setting [4]) is listed as “xxx (activity was measured to be less than 0.1 μM)”. Also, the Emax is < 65% at M1 muscarinic receptor (setting [5]) and > 85% at M4 muscarinic receptor (setting [7]). At M4 muscarinic receptor (setting [6]), the “M4 Activity” value is “xx (activity was measured to be between 0.1 μM and 1.0 μM)”.
`CN(C)C(=O)N1CC2(CCN(C3CCN(c4ccsc4)CC3)CC2)c2cc(F)ccc21` [compound 561]: the Emax on M1 muscarinic receptor (setting [1]) and on M4 muscarinic receptor (setting [1]) was 25 to 100% throughout. The “M1 Activity” value at M1 muscarinic receptor (setting [12]) is on record as “x (activity was measured to be greater than 5.0 μM)”. The “M4 Activity” value at M4 muscarinic receptor (setting [13]) is “xx (activity was measured to be between 2.0 μM and 5.0 μM)”.
Regarding `CCOC(=O)N1CCC(N2CCC3(CC2)CN(C(C)=O)c2c(CC)cccc23)CC1` [compound 859], the Emax on M1 muscarinic receptor (setting [1]) and on M4 muscarinic receptor (setting [1]) was 25 to 100% in each case. The “M1 Activity” value at M1 muscarinic receptor (setting [2]) is on record as “x (activity was measured to be greater than 5.0 μM)”. The “M4 Activity” value at M4 muscarinic receptor (setting [3]) is “x (activity was measured to be greater than 5.0 μM)”.
Take `CCC(=O)CCN1CCC(N2CCC3(CC2)CN(C(C)=O)c2ccc(F)cc23)CC1` [compound 454]: the Emax on M1 muscarinic receptor (setting [1]) and on M4 muscarinic receptor (setting [1]) was < 25% throughout. Moreover, the “M1 Activity” value at M1 muscarinic receptor (setting [12]) is given as “x (activity was measured to be greater than 5.0 μM)”. The “M4 Activity” value on M4 muscarinic receptor (setting [13]) was “x (activity was measured to be greater than 5.0 μM)”.
